# Entries after “also recorded” stand apart in the source; their conditions may differ.
# Tests used:
# [1] = Bitterness perception in aqueous 5% v/v ethanol/H2O solution; details: 6 ppm in 5% ethanol/H2O
# Source text: An aqueous 5% v/v ethanol/H2O solution was spiked with 6 ppm of THICO I, II, and III.
# [2] = system: Lactobacillus brevis; test: Bacterial zone of inhibition (BZI), filter paper disks on Universal Beer Agar; format: cell-based; details: disks immersed in 4000 ppm in 70% ethanol/water
# Protocol: (§1) The antimicrobial effect of three molecules was tested on Pediococcus damnosus and Lactobacillus brevis with two methods (MIC and BZI). MIC was determined based on the concentration at which no bacteria were detected in the modified BMB without Tween 80 culture medium. […] The average diameters of the zones of bacterial inhibition in Universal Beer Agar (UBA) produced by the filter paper disks immersed in 4000 ppm of THICO I, II, and III in 70% ethanol/water are shown in Table 5. Zone diameters increased with the same rates for three molecules on two different organisms (Pediococcus damnosus and Lactobacillus brevis) indicate that all molecules have the same antibacterial effectiveness. No enantioselective antibacterial interactions between THICO I, II, III and the microbial occur.
# [3] = system: Pediococcus damnosus; test: as above; format: cell-based; details: disks immersed in 4000 ppm in 70% ethanol/water
# Protocol: as §1
# [4] = Sensory evaluation of unhopped lagers spiked with THICO
# Source text: Two sets of unhopped lagers (A and B) were spiked with 6 ppm and 13 ppm of THICO I, II, and III, respectively.
# The other two beers were noted as being similar with initial intense bitterness that diminished slowly with slight lingering bitterness.
# [5] = system: Pediococcus damnosus; test: Minimum inhibitory concentration (MIC) in modified BMB without Tween 80 culture medium; format: cell-based; set-up: key to Growth of beer spoilage bacteria: + = Growth of beer spoilage bacteria; − = No growth of beer spoilage bacteria; +/− = Partial inhibition of bacterial growth; details: for Growth of beer spoilage bacteria: hop acids in 70% ethanol; for Minimum inhibitory concentration (MIC): concentration at which no bacteria were detected
# Protocol: as §1
# [6] = set A: unhopped lager spiked with 6 ppm
substance,measurement,setting,value
(+)-cis- and (−)-trans-THICO [THICO I],Bitterness intensity (rank order),[1],THICO II>(±)-THICO III>THICO I
same,Diameter of Bacterial Zone of Inhibition,[2],26 mm
same,Diameter of Bacterial Zone of Inhibition,[3],11.5 mm
same,Sensory evaluation of bitterness in beer,[4]; [6],a little more initial bitterness
same,Growth of beer spoilage bacteria,[5]; 0.5 ppm,+
same,Growth of beer spoilage bacteria,[5]; 1 ppm,+
same,Growth of beer spoilage bacteria,[5]; 2 ppm,+
same,Growth of beer spoilage bacteria,[5]; 4 ppm,+
same,Growth of beer spoilage bacteria,[5]; 8 ppm,+
same,Growth of beer spoilage bacteria,[5]; 16 ppm,+/−
same,Growth of beer spoilage bacteria,[5]; 32 ppm,−
same,Growth of beer spoilage bacteria,[5]; 64 ppm,−
same,Growth of beer spoilage bacteria,[5]; 128 ppm,−
same,Minimum inhibitory concentration (MIC),[5],16 ppm
(±)-cis- and (±)-trans-tetrahydroisocohumulones [THICO III],Bitterness (bitter perception),[1],"smooth and milder than the others; also recorded: smooth, milder, clean"
same,Bitterness intensity (rank order),[1],II>III>I
same,Bitterness (bitter perception),[1]; listed as (±)-THICO III,"milder and smooth bitterness than THICO I; also recorded: smooth, clean and milder than I and II"
same,Bitterness intensity (rank order),[1]; listed as (±)-THICO III,THICO II>(±)-THICO III>THICO I
same,Diameter of Bacterial Zone of Inhibition,[2],22.5 mm
same,Diameter of Bacterial Zone of Inhibition,[3],12 mm
same,Sensory evaluation of bitterness in beer,[4]; [6],diminished quickly
(−)-cis- and (+)-trans-tetrahydro isocohumulone [THICO II],Bitterness intensity (rank order),[1],THICO II>(±)-THICO III>THICO I
same,Diameter of Bacterial Zone of Inhibition,[2],26.5 mm
same,Diameter of Bacterial Zone of Inhibition,[3],12 mm
same,Sensory evaluation of bitterness in beer,[4]; [6],the most bitterness and longest lingering
same,Sensory evaluation of bitterness in beer,"[4]; set A: unhopped lager spiked with 6 ppm, listed as THCO II",the strongest initial bitterness and lingered the longest
same,Sensory evaluation of bitterness in beer,[4]; set B: unhopped lager spiked with 13 ppm,strong initial bitterness that increased (described as late bitterness) and also lingered
same,Growth of beer spoilage bacteria,[5]; 0.5 ppm,+
same,Growth of beer spoilage bacteria,[5]; 1 ppm,+
same,Growth of beer spoilage bacteria,[5]; 2 ppm,+
same,Growth of beer spoilage bacteria,[5]; 4 ppm,+
same,Growth of beer spoilage bacteria,[5]; 8 ppm,+
same,Growth of beer spoilage bacteria,[5]; 16 ppm,+/−
same,Growth of beer spoilage bacteria,[5]; 32 ppm,−
same,Growth of beer spoilage bacteria,[5]; 64 ppm,−
same,Growth of beer spoilage bacteria,[5]; 128 ppm,−
same,Minimum inhibitory concentration (MIC),[5],16 ppm

# — US9567280B2, “Preparation of hop acids and their derivatives” (MillerCoors LLC, priority 2010, dated 2017)
